“And” between values parts separate entries of the source, which are not always exact repeats. Equal entries are not always repeated.
What was measured:
Assay in all cases: KINOMEscan competition binding
Conditions in all cases: compound 1.0 µM
NEK1 (human) = NEK1 (human) (UniProt Q96PY6)
AAK1 (human) = AAK1 (human) (UniProt Q2M2I8)
FES (human) = FES (human) (UniProt P07332)
[1] = tested on: ABL1 (human), P00519 [F317I]
SYK (human) = SYK (human) (UniProt P43405)
ULK3 (human) = ULK3 (human) (UniProt Q6PHR2)
[2] = tested on: ABL1 (human), P00519 [Y253F]
DCLK1 (human) = DCLK1 (human) (UniProt O15075)
CAMK1D (human) = CAMK1D (human) (UniProt Q8IU85)
NUAK2 (human) = NUAK2 (human) (UniProt Q9H093)
MAPK7 (human) = MAPK7 (human) (UniProt Q13164)
EIF2AK2 (human) = EIF2AK2 (human) (UniProt P19525)
[3] = tested on: RET (human), P07949 [V804M]
SIK3 (human) = SIK3 (human) (UniProt Q9Y2K2)
LYN (human) = LYN (human) (UniProt P07948)
PIM2 (human) = PIM2 (human) (UniProt Q9P1W9)
SRPK2 (human) = SRPK2 (human) (UniProt P78362)
[4] = biological target: TYK2 JH1 catalytic (human) (UniProt P29597)
DAPK1 (human) = DAPK1 (human) (UniProt P53355)
TAOK1 (human) = TAOK1 (human) (UniProt Q7L7X3)
MYLK3 (human) = MYLK3 (human) (UniProt Q32MK0)
RIPK1 (human) = RIPK1 (human) (UniProt Q13546)
CSNK1E (human) = CSNK1E (human) (UniProt P49674)
TGFBR2 (human) = TGFBR2 (human) (UniProt P37173)
DAPK3 (human) = DAPK3 (human) (UniProt O43293)
MYLK4 (human) = MYLK4 (human) (UniProt Q86YV6)
ROCK1 (human) = ROCK1 (human) (UniProt Q13464)
LATS1 (human) = LATS1 (human) (UniProt O95835)
CAMK2G (human) = CAMK2G (human) (UniProt Q13555)
EPHA4 (human) = EPHA4 (human) (UniProt P54764)
IKBKB (human) = IKBKB (human) (UniProt O14920)
CDK2 (human) = CDK2 (human) (UniProt P24941)
CSNK1G2 (human) = CSNK1G2 (human) (UniProt P78368)
EPHA7 (human) = EPHA7 (human) (UniProt Q15375)
PRKAA2 (human) = PRKAA2 (human) (UniProt P54646)
MAK (human) = MAK (human) (UniProt P20794)
MAP2K2 (human) = MAP2K2 (human) (UniProt P36507)
CLK1 (human) = CLK1 (human) (UniProt P49759)
ANKK1 (human) = ANKK1 (human) (UniProt Q8NFD2)
MERTK (human) = MERTK (human) (UniProt Q12866)

Sequence of TAOK1 (human) (Q7L7X3 whole entry, looked up): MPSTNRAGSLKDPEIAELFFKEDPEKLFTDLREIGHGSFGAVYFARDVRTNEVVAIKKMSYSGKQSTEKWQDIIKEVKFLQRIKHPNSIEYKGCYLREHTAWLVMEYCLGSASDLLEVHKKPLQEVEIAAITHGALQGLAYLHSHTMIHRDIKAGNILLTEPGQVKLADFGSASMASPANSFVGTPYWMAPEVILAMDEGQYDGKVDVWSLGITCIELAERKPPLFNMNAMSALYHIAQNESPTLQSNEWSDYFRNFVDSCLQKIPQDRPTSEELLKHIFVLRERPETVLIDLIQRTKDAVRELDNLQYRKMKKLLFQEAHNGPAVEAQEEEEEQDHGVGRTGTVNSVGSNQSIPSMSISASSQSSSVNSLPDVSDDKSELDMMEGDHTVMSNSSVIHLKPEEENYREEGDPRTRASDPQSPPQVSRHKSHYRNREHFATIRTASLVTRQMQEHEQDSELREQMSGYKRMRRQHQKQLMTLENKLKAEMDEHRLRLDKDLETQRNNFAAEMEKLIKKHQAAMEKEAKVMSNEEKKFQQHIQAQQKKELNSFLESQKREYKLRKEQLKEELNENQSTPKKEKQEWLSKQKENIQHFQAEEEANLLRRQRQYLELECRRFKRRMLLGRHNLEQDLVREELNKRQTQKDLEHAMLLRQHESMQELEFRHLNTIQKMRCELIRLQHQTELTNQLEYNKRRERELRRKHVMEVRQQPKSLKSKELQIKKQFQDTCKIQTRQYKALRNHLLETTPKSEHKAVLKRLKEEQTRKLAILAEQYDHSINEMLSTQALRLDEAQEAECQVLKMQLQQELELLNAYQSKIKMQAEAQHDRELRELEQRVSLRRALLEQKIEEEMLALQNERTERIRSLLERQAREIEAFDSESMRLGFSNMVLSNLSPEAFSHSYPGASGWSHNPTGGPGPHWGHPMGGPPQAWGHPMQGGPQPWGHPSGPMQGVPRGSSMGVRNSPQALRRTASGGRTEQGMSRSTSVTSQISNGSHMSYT
Sequence of NUAK2 (human) (Q9H093 whole entry, looked up): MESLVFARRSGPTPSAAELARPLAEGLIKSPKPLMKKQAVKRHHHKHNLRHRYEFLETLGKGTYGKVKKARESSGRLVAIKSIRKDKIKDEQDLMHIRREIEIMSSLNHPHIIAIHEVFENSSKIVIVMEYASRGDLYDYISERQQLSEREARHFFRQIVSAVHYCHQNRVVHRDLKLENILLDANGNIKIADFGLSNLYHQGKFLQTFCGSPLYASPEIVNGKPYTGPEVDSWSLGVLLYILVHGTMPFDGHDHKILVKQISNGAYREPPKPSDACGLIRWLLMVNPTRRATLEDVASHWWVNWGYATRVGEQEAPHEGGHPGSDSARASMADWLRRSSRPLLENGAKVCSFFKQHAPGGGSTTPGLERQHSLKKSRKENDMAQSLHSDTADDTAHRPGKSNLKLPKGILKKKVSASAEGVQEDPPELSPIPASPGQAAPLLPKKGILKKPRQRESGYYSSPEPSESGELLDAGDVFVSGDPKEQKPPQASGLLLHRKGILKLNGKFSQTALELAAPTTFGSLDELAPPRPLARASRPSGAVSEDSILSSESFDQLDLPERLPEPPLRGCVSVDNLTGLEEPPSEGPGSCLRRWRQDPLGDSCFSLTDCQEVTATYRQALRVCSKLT
Sequence of PRKAA2 (human) (P54646 whole entry, looked up): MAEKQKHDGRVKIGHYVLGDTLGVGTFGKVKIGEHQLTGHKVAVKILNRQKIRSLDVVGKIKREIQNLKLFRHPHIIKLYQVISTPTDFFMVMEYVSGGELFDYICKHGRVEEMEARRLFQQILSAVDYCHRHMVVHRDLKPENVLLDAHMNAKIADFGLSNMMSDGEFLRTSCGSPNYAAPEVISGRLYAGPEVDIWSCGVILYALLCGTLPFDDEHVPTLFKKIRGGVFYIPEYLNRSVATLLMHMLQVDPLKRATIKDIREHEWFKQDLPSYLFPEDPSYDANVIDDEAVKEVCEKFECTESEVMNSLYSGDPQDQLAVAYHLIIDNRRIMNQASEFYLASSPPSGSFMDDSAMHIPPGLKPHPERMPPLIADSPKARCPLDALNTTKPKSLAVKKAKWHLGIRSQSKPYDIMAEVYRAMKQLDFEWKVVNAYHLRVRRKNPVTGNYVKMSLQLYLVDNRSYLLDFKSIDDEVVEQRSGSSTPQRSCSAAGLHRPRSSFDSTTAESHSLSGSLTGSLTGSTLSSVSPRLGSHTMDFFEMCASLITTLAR
Sequence of MYLK4 (human) (Q86YV6 whole entry, looked up): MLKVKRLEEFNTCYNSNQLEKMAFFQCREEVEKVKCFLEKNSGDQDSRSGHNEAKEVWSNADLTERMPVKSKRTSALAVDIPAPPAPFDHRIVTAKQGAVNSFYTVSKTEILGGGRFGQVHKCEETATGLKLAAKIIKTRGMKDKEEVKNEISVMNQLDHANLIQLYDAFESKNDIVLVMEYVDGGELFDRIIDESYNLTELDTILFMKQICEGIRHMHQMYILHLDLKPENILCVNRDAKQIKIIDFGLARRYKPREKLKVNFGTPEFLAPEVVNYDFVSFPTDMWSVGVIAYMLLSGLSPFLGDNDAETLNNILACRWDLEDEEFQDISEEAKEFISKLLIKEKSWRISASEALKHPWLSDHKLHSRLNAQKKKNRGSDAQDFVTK
Sequence of DAPK3 (human) (O43293 whole entry, looked up): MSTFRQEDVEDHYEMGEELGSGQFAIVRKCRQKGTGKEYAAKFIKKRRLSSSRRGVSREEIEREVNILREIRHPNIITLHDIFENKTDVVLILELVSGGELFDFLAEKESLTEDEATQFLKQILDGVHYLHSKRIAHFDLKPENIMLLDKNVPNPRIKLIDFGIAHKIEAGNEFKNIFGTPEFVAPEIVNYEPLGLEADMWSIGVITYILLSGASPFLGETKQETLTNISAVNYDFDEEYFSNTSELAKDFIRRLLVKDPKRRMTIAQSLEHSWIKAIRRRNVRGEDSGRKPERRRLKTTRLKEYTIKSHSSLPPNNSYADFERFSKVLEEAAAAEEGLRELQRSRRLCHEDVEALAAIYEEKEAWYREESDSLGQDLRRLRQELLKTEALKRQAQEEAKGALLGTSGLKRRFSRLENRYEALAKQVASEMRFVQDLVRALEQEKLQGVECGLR
Sequence of TYK2 JH1 catalytic (human) (P29597 whole entry, looked up): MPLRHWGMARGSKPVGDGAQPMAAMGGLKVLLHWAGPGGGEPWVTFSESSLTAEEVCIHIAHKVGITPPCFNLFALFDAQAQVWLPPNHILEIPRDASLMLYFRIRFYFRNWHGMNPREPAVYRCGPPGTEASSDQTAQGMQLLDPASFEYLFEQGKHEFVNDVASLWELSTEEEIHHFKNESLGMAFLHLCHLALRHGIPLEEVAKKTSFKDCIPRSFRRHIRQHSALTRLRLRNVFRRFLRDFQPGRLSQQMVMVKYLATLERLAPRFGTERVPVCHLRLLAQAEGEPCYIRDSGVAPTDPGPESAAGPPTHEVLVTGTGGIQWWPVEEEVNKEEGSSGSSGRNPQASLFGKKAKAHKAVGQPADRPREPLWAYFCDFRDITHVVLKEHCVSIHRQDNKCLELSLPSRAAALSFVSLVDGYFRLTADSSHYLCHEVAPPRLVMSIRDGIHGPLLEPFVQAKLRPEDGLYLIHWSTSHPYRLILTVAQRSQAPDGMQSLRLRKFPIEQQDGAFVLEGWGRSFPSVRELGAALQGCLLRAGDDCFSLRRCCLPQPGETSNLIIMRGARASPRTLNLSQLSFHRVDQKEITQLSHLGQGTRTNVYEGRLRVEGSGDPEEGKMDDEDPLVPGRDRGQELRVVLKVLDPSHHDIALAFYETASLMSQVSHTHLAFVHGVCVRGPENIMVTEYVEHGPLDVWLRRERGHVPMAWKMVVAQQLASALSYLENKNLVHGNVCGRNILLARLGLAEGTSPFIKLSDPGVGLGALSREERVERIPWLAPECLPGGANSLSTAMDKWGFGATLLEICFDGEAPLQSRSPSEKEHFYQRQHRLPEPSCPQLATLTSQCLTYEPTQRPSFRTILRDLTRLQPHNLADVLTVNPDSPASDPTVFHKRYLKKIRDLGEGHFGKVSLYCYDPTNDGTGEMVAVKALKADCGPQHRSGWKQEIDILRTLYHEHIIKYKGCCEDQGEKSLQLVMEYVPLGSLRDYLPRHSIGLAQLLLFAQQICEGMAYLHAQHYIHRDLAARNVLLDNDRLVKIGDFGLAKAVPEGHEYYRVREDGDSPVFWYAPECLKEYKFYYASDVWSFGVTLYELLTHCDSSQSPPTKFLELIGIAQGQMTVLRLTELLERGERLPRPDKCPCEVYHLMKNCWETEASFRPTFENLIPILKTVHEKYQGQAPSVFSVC
Sequence of CAMK1D (human) (Q8IU85 whole entry, looked up): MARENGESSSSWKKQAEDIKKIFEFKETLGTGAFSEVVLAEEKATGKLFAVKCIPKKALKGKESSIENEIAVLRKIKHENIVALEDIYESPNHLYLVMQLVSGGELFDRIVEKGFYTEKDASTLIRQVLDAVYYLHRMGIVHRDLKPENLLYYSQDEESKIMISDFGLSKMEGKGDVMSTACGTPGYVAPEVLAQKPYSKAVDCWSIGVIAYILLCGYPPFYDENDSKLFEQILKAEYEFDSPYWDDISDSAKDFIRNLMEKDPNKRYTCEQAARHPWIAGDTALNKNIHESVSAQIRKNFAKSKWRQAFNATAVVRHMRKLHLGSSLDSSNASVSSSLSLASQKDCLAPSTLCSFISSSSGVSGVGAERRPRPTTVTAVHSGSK
Sequence of PIM2 (human) (Q9P1W9 whole entry, looked up): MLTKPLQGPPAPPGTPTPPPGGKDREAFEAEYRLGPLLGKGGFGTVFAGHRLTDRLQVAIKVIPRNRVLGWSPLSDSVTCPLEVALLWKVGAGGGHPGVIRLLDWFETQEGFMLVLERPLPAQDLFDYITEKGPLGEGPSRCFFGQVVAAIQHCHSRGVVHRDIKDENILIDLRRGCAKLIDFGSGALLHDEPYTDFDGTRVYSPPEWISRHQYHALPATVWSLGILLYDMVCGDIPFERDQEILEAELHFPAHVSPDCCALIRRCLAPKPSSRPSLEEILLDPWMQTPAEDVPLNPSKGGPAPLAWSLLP

inhibition of binding (NEK1 (human)): 15% | inhibition of binding (AAK1 (human)): 0% | inhibition of binding (FES (human)): 0% | inhibition of binding [1]: 41% | inhibition of binding (SYK (human)): 0% | inhibition of binding (ULK3 (human)): 17% | inhibition of binding [2]: 0% | inhibition of binding (DCLK1 (human)): 7% | inhibition of binding (CAMK1D (human)): 0% | inhibition of binding (NUAK2 (human)): 0% | inhibition of binding (MAPK7 (human)): 0% | inhibition of binding (EIF2AK2 (human)): 19% | inhibition of binding [3]: 14% | inhibition of binding (SIK3 (human)): 0% | inhibition of binding (LYN (human)): 0% | inhibition of binding (PIM2 (human)): 0% | inhibition of binding (SRPK2 (human)): 27% | inhibition of binding [4]: 0% | inhibition of binding (DAPK1 (human)): 2% | inhibition of binding (TAOK1 (human)): 0% and 2% | inhibition of binding (MYLK3 (human)): 0% | inhibition of binding (RIPK1 (human)): 0% | inhibition of binding (CSNK1E (human)): 7% | inhibition of binding (TGFBR2 (human)): 24% | inhibition of binding (DAPK3 (human)): 10% | inhibition of binding (MYLK4 (human)): 0% | inhibition of binding (ROCK1 (human)): 0% | inhibition of binding (LATS1 (human)): 4% | inhibition of binding (CAMK2G (human)): 0% | inhibition of binding (EPHA4 (human)): 2% | inhibition of binding (IKBKB (human)): 0% | inhibition of binding (CDK2 (human)): 30% | inhibition of binding (CSNK1G2 (human)): 0% | inhibition of binding (EPHA7 (human)): 0% | inhibition of binding (PRKAA2 (human)): 0% | inhibition of binding (MAK (human)): 0% | inhibition of binding (MAP2K2 (human)): 0% | inhibition of binding (CLK1 (human)): 58% | inhibition of binding (ANKK1 (human)): 0% | inhibition of binding (MERTK (human)): 0%
Structure (SMILES): Nc1cc(C(F)(F)F)c(-c2cc(N3CCOCC3)nc(N3CCOCC3)n2)cn1

From the kinase profiling compilation of Christmann-Franck et al. (2016)
